# Assay results as given in US4542140A, “Pyridinyl substituted ketenemercaptal derivatives” (American Home Products Corporation, priority 1983, dated 1985).
# Tests used:
# [1] = test system: spontaneous gastric acid secretion; experiment: inhibition of spontaneous gastric acid secretion in cannulated rats; assay type: in vivo, Male albino Sprague Dawley rats
# Method: Male albino Sprague Dawley rats (200-300 g), purchased from Canadian Breeding Laboratories, were employed. Two gastric cannulas were implanted surgically in each rat as described by L. E. Borella and F. Herr, Gastroenterology, 61, 345 (1971). The rats were used two to three weeks after the operation at a time when their food intake and weight gain were similar to the food intake and weight gain of unoperated litter mates. Before testing, the rats were deprived of food for 18 hours, but they had available a solution of 0.2% sodium chloride in 5% glucose for drinking ad libitum. Prior to each experiment, the plugs of the stomach cannulas of each rat were removed and the debris present in the stomach was flushed out with tepid saline passed through the cannulas. Thereafter, the lumen of the stomach was continuously perfused with saline introduced into the stomach through the forestomach cannula at a rate of 0.8-1.2 ml/min. The stomach perfusate flowing out of the antrum cannula was collected in 60 minutes intervals and the total acid in each collection was titrated with 0.05N sodium hydroxide employing phenol red as an indicator. After a period of acclimatization of about 60 to 90 minutes, the acid output values were recorded. On the basis of the hourly acid output, the rats were divided into equal groups so that the average acid output of all groups was similar. Saline (vehicle) or saline suspensions or solutions of the test compounds were administered intragastrically (i.g.) through the forestomach cannula, after having closed the antral cannula. During the one hour absorption period, the stomachs of the rats were not perfused. After the absorption period, perfusion of the stomachs was resumed, and the perfusates were collected hourly for three hours. The average post-treatment hourly acid outputs of the test compound groups were compared to that of the saline group and the percent inhibition of acid output was calculated. Multiple statistical comparisons between groups was done using Dunnet's t test, C. W. Dunnet, Journal of American Statistical Association, 50, 1096 (1955).
# [2] = test system: gastric lesions induced by absolute alcohol; experiment: gastric lesions induced in rats by absolute alcohol; assay type: in vivo, male albino rats (Sprague-Dawley); details: i.g., 30 minutes before absolute ethanol
# Method: More explicitly exemplified, the beneficial effects were evaluated as follows: food was withheld from male albino rats (180-220 g, Sprague-Dawley, Canadian Breeding Laboratories) for 18 to 19 hours, but water was freely available. Test compounds were administered intragastrically (i.g.) by stomach gavage, 30 minutes before absolute ethanol. The absolute ethanol (one milliliter) also was administered by gavage. One hour after the alcohol treatment, the rats were killed and their stomachs removed for observation. Clotted blood was removed from the surface of the mucosa, and the macroscopic lesions counted. The average scores of the treatment groups were compared individually to that of the control group and percent inhibitions of lesion formation calculated. The data was analyzed statistically according to Dunnett's t test for multiple comparisons between groups.
# The results obtained when 2-cyano-3-(methylthio)-3-[[3-pyridinyl)-methyl]thio]-2-propenoic acid methyl ester, described in example 1, was tested according to the previous method is as follows.
# [3] = 50 mg/kg/i.g., tested as hydrochloric acid addition salt
structure (smiles),measurement,setting,value
"COC(=O)C(C#N)=C(SCc1cccnc1)SCc1cccnc1 [1 (R^2 = 3-pyridinylmethyl thio), 2-cyano-3,3-bis[[(3-pyridinyl)methyl]thio]-2-propenoic acid methyl ester]",Percent Inhibition of Acid Output,[1]; 25 mg/kg/i.g.,38%
"COC(=O)C(C#N)=C(SC)SCc1cccnc1 [Example 1, 2-Cyano-3-(methylthio)-3-[[(3-pyridinyl)methyl]thio]-2-propenoic Acid Methyl Ester]",Percent Inhibition of Acid Output,[1]; 25 mg/kg/i.g.,85%
same,"Gastric Ulcers Formed, % Inhibition",[2]; 5 mg/kg,61%
same,"Gastric Ulcers Formed, Score (mean ± S.E.)",[2]; 5 mg/kg,6.7 ± 2.2
same,"Gastric Ulcers Formed, % Inhibition",[2]; 10 mg/kg,100%
same,"Gastric Ulcers Formed, Score (mean ± S.E.)",[2]; 10 mg/kg,0
"COC(=O)C(C#N)=C(SC)SCc1ccc[n+]([O-])c1 [Example 2, 2-Cyano-3-(methylthio)-3-[[(3-pyridinyl)methyl]thio]-2-propenoic Acid Methyl Ester N-oxide]",Percent Inhibition of Acid Output,[1]; 25 mg/kg/i.g.,60%
"COC(=O)C(C#N)=C(SC)Sc1ccnnc1C [Example 3, 2-cyano-3-[(3-methyl-4-pyridazinyl)thio]-3-(methylthio)-2-propenoic acid methyl ester]",Percent Inhibition of Acid Output,[1]; [3],90%
"COC(=O)C(C#N)=C(SC)SCc1cnccn1 [Example 4, 2-cyano-3-(methylthio)-3-[[(3-pyrazinyl)methyl]-thio]-2-propenoic acid methyl ester]",Percent Inhibition of Acid Output,[1]; [3],88%
"CSC(SCc1cccnc1)=C(C#N)C(N)=O [Example 12, 2-Cyano-3-(methylthio)-3-[[(3-pyridinyl)methyl]thio]-2-propenamide]",Percent Inhibition of Acid Output,[1]; 25 mg/kg/i.g.,27%
"CSC(SCc1ccncc1)=C(C#N)C(N)=O [Example 13, 2-Cyano-3-(methylthio)-3-[[(4-pyridinyl)methyl]thio]-2-propenamide]",Percent Inhibition of Acid Output,[1]; 50 mg/kg/i.g.,59%
